The values that follow come from paper PMC7917936, “Synthesis and Self-Assembly Properties of Bola-Amphiphilic Glycosylated Lipopeptide-Type Supramolecular Hydrogels Showing Colour Changes Along with Gel–Sol Transition” (International Journal of Molecular Sciences, 2021).

This data set in a line: Measurement of the gel–sol transition temperature (Tgel), vial inversion method. The format is physicochemical. The following applies: hydrogel at CGC (0.19 wt%), 200 mM HEPES–NaOH buffer (pH 8.0), oil bath 25 to 85 °C, 1 °C/step, 1 min per step. As for the experimental part: The gel–sol phase transition behaviour of the βGal–AAC–C6–F3 hydrogel (0.19 wt% (CGC) in 200 mM HEPES–NaOH buffer (pH 8.0)) was determined using the vial inversion method. The inverted gel in the vial was placed in an oil bath, which was heated from 25 °C to 85 °C, at a rate of 1 °C/step. The vial was immersed at each temperature for 1 min to equilibrate. The temperature, at which the sample completely dissolved, was defined as the Tgel value of the gel.

The structures appear in SMILES notation.

For the compound `O=C(CCCCCCN1C(=O)C(Cl)=C(Nc2ccc(O[C@@H]3O[C@H](CO)[C@H](O)[C@H](O)[C@H]3O)cc2)C1=O)N[C@@H](Cc1ccccc1)C(=O)N[C@@H](Cc1ccccc1)C(=O)N[C@@H](Cc1ccccc1)C(=O)O` [βGal–AAC–C6–F3], the “Tgel (gel-to-sol phase transition temperature)” value stood at 78 °C.
